Laboratory results as given in patent US8288396B2, “Pyrimidopyrimidoindazole derivative” (MSDKK, priority 2009, dated 2012).
pEC50, pIC50: −log10 of the molar value.

Key:
[1] = target: T1, Wee1 kinase (Homo sapiens, UniProt P30291); assay: Wee1 kinase inhibitory effect (Pharmacological Test 1); assay type: biochemical; conditions: GST-tagged Wee1 kinase, Poly(Lys, Tyr) substrate, 10 μM ATP, 30° C. for 30 minutes
T1 construct: made in house; host or cells: Sf9 insect cells (recombinant baculovirus)
From the text: Pharmacological Test 1 (Wee1 Kinase Inhibitory Effect)
(1) Purification of Wee1 Kinase
A cDNA of Wee1 kinase with […] (GST) fused at the amino terminal thereof was inserted into a baculovirus expression vector to construct a recombinant baculovirus, with which cells of an insect cell line Sf9 were infected to overexpress the target protein. The infected cells were collected and lysed, and then the GST-tagged Wee1 kinase protein was adsorbed to a glutathione column and eluted from the column with glutathione, and the active fraction was desalted in a desalting column to give a purified enzyme.
(2) Measurement of Wee1 Kinase Activity
In measurement of the Wee1 kinase activity, a synthetic peptide, Poly(Lys, Tyr) hydrobromide (Lys:Tyr (4:1)) purchased from Sigma was used as the substrate.
The amount of the reaction mixture was 21.1 μL; and the composition of the reaction buffer was 50 mM Tris-HCl buffer (pH 7.4)/10 mM magnesium chloride/1 mM dithiothreitol. The purified Wee1 kinase, 2.5 μg of the substrate peptide, 10 μM of non-labeled adenosine triphosphate (ATP) and 1 μCi of [γ-^33P]-labeled ATP (2500 Ci/mmol or more) were added to the reaction buffer, and the resulting mixture was incubated at 30° C. for 30 minutes. Thereafter, 10 μL of 350 mM phosphate buffer was added to the reaction system to stop the reaction. The substrate peptide was adsorbed on a P81 paper filter 96-well plate and the plate was washed several times with 130 mM phosphate buffer, and the radioactivity thereof was counted using a liquid scintillation counter. The [γ-^33P]-labeled ATP was purchased from Amersham Bioscience, Ltd.
The addition of a test compound to the reaction system was carried out by preparing a series of dilutions of the compound with dimethyl sulfoxide (DMSO) and adding 1.1 μL of each dilution to the reaction system. As a control, 1.1 μL of DMSO was added to the reaction system.

[2] = test system: Cdc2 (Cdk1) tyrosine-15 phosphorylation; assay: Inhibitory effect on Cdc2 (Cdk1) tyrosine-15 phosphorylation in NCI-H1299 cells (Pharmacological Test 2); assay type: cell-based; conditions: Homo sapiens, camptothecin 200 nM 16 hours, then test compound with nocodazole 8 hours, ELISA, read-out: Cdc2-Y15 Phosphorylation-Inhibitory Effect (H1299, +camptothecin) (EC50)
From the text: Pharmacological Test 2 (Method for Determining Drug Effect Using Cells (Inhibitory Effect on Cdc2 (Cdk1) Tyrosine-15 Phosphorylation))
Fetal bovine serum (FBS) was purchased from Morgate, Inc.; an RPMI-1640 medium and a DMEM medium were purchased from Invitrogen, Inc.; camptothecin was purchased from Sigma Co.; gemcitabine was purchased from Eli Lilly Japan K.K.; nocodazole and protease inhibitor cocktail were purchased from Sigma Co.; a rabbit anti-Cdc2 antibody and a mouse anti-Cdc2 antibody were purchased from Santa Cruz Biotechnology, Inc.; a rabbit anti-tyrosine-15-phosphorylated Cdc2 antibody and a horseradish peroxidase-labeled anti-mouse IgG antibody were purchased from Cell Signaling Technology, Inc.; and Sure Blue Reserve TMB peroxidase substrate was purchased from Kirkegaard & Perry Laboratories, Inc.
A human non-small cell lung cancer cell line (NCI-H1299) and a human colon cancer cell line (WiDr) can be obtained from American Type Culture Collection (ATCC).
In the method using NCI-H1299 cells, the cells were suspended in an RPMI-1640 medium supplemented with 10% FBS, and 100 μL of the resulting cell suspension was dispensed in a Nunclon Delta treated 96-well plastic plate purchased from Nunc, Inc. at a density of 2000 cells per well, and the plate was incubated overnight at 37° C. under an atmosphere of 5% CO2 and 95% air. Camptothecin was dissolved in dimethyl sulfoxide (DMSO) and further the resulting solution was diluted with an RPMI-1640 medium supplemented with 10% FBS. Then, 50 μL of the diluted solution was added to each well of the plate in which the cells were seeded in advance such that the final concentration of camptothecin was 200 nM, and the plate was incubated at 37° C. under an atmosphere of 5% CO2 and 95% air for 16 hours. A test compound was serially diluted with DMSO, and further diluted with an RPMI-1640 medium supplemented with 10% FBS containing 4000 nM nocodazole. Then, 50 μL of the test compound solution was added to each well of the plate in which the cells treated with camptothecin were seeded, and the plate was incubated at 37° C. under an atmosphere of 5% CO2 and 95% air for 8 hours. Then, the culture medium was removed from each well and 100 μL of a cell lysis buffer was added to each well, and the plate was shaken at 4° C. for 2 hours, and thereafter the liquid in the plate was frozen at −80° C. and then thawed, which was used as a lysed cell solution. Cdc2 and tyrosine-15-phosphorylated Cdc2 in this lysed cell solution were measured by an enzyme-linked immunosorbent assay (ELISA method), and a ratio of tyrosine-15-phosphorylated Cdc2 to Cdc2 was calculated to determine a 50% effective concentration (EC50, nM) of the test compound for inhibition of phosphorylation in cells. The cell lysis buffer as used herein is an aqueous solution containing 20 mM HEPES (pH 7.5), 150 mM sodium chloride, 1 mM disodium ethylenediamine tetraacetate, 0.1% polyoxyethylene (10) octylphenyl ether, 1% protease inhibitor cocktail, 1 mM dithiothreitol, 2 mM sodium orthovanadate, 10 mM sodium fluoride and 10 mM glycerol diphosphate. The measurement of Cdc2 by the ELISA method was carried out as follows. 50 μL of a solution of a rabbit anti-Cdc2 antibody obtained by diluting the antibody to 200 times with 50 mM carbonate-bicarbonate buffer (pH 9.6) was dispensed into each well of a 96-well Maxisorb immunoplate purchased from Nunc, Inc., and the immunoplate was let stand overnight at 4° C. to immobilize the antibody thereto. Subsequently, each well was washed three times with phosphate buffered saline (PBS), and 300 μL of PBS containing 5% bovine serum albumin (5% BSA/PBS) was added to each well, and then, the immunoplate was let stand at room temperature for 2 hours. […]

T1 sequence (P30291 whole entry): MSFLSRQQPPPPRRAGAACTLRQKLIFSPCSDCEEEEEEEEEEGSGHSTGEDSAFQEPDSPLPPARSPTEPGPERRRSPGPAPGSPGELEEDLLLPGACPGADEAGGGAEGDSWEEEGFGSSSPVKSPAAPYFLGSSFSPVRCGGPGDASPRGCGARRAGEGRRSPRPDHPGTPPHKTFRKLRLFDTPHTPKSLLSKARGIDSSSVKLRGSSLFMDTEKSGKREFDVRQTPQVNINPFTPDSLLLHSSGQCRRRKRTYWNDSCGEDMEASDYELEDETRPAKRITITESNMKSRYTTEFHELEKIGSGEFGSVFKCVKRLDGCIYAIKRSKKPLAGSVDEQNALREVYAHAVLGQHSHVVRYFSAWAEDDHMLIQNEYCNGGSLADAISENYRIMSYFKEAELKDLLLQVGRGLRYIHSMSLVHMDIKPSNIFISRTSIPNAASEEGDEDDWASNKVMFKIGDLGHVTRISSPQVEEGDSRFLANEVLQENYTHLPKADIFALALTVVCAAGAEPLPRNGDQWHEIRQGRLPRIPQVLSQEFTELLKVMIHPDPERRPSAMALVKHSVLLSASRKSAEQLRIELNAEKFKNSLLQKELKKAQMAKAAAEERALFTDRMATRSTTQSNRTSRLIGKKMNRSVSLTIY

SMILES | pIC50 [1] | pEC50 [2]
CN(C)[C@H]1CCN(c2ccc(Nc3ncc4c(=O)n5c(nc4n3)c3ccccc3n5-c3ncccn3)cc2)C1 [Example 79, 2-({4-[(3S)-3-(dimethylamino)pyrolidin-1-yl]phenyl}amino)-7-(pyrimidin-2-yl)pyrimido[4′,5′:4,5]pyrimido[1,2-b]indazol-5(7H)-one] | 7.62 | 6.43
Cc1cc(Nc2ncc3c(=O)n4c(nc3n2)c2ccccc2n4-c2ncccn2)ccc1OCCN(C)C [Example 90, 2-({4-[2-(dimethylamino)ethoxy]-3-methylphenyl}amino)-7-(pyrimidin-2-yl)pyrimido[4′,5′:4,5]pyrimido[1,2-b]indazol-5(7H)-one] | 7.52 | 6.60
CN1CCc2ccc(Nc3ncc4c(=O)n5c(nc4n3)c3ccccc3n5-c3ncccn3)cc2C1 [Example 101, 2-[(2-methyl-1,2,3,4-tetrahydroisoquinolin-7-yl)amino]-7-(pyrimidin-2-yl)pyrimido[4′,5′:4,5]pyrimido[1,2-b]indazol-5(7H)-one] | 8.42 | 7.37

Now from value to compound:

pIC50 [1] | pEC50 [2] | SMILES
7.82 | 6.72 | CN(C)CCN1CCc2cc(Nc3ncc4c(=O)n5c(nc4n3)c3ccccc3n5-c3nccs3)ccc21 [Example 144, 2-({1-[2-(dimethylamino)ethyl]-2,3-dihydro-1H-indol-5-yl}amino)-7-(1,3-thiazol-2-yl)pyrimido[4′,5′:4,5]pyrimido[1,2-b]indazol-5(7H)-one]
8.28 | 7.96 | CN1CCc2cc(Nc3ncc4c(=O)n5c(nc4n3)c3ccccc3n5-c3nccs3)ccc2C1 [Example 136, 2-[(2-methyl-1,2,3,4-tetrahydroisoquinolin-6-yl)amino]-7-(1,3-thiazol-2-yl)pyrimido[4′,5′:4,5]pyrimido[1,2-b]indazol-5(7H)-one]
